Assays:
BRD4 (His-Brd4(44-477)) = BRD4 (His-Brd4(44-477)) (Homo sapiens (Human), UniProt O60885); test: TR-FRET in-vitro binding assay for BRD4; conditions: single determination or n ≧ 2 independent determinations, read-out: Biochemical IC50 BRD4
In short: (§1)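 In this TR-FRET format, each compound was tested as an 8-point dilution series, single point per concentration, dispensed from 90% DMSO solution. Incubation lasted 35 minutes at 30° C.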

[1] = biological target: CREBBP bromodomain (His-CREBBP(1081-1197)) (Homo sapiens (Human), UniProt Q92793); test: AlphaScreen in-vitro binding assay for CREBBP; conditions: single determination or n ≧ 2 independent determinations, read-out: Biochemical IC50 CREBBP
Sequence of CREBBP bromodomain (His-CREBBP(1081-1197)) (Q92793 1081-1197): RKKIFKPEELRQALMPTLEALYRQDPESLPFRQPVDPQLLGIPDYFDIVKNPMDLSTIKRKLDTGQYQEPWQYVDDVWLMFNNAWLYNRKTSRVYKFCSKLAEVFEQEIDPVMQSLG
In short: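 Detection used nickel-chelate acceptor plus streptavidin donor AlphaScreen beads, 1 h room temperature. Percent inhibition fitted by non-linear regression to IC50.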

THP-1 cells = test: Cell growth inhibition assay (CellTiter-Glo), THP-1; conditions: for GI50: Homo sapiens, THP-1, read-out: THP-1 GI50; for THP-1 TGI: THP-1 cells, total growth inhibition, CellTiter-Glo;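 on all read-outs here: viability read as cellular ATP luminescence after 4 days, 3-fold dilution series from 10 µM, DMSO vehicle-treated cells taken as 100%, cell-free medium wells as −100%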
BRD3 (His-Brd3(20-477)) = BRD3 (His-Brd3(20-477)) (Homo sapiens (Human), UniProt Q15059); test: TR-FRET in-vitro binding assay for BRD3; conditions: single determination or n ≧ 2 independent determinations, read-out: Biochemical IC50 BRD3
Sequence of BRD3 (His-Brd3(20-477)) (Q15059 20-477): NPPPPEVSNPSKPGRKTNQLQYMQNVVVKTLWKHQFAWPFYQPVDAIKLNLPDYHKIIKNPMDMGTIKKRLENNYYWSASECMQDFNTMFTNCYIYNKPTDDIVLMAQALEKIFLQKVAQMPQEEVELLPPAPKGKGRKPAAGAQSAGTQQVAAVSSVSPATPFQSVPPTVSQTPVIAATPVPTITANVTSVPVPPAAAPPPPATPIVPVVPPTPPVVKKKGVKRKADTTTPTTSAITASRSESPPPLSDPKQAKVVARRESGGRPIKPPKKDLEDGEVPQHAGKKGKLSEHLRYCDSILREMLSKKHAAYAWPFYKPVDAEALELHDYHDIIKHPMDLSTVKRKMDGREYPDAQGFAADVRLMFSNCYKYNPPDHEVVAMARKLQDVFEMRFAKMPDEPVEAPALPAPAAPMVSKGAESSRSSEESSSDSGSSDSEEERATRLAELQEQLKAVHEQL
In short: as §1

MV-4-11 cells = test: Cell growth inhibition assay (CellTiter-Glo), MV-4-11; conditions: for GI50: Homo sapiens, MV4-11, read-out: MV-4-11 GI50; for MV-4-11 TGI: MV-4-11 cells, total growth inhibition, CellTiter-Glo;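 on all read-outs here: cellular ATP luminescence after 4 days, 3-fold dilution series from 10 µM top dose, vehicle (0.1% DMSO) set to 100%, cell-free medium set to −100%, day 0 corrected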
K-562 cells = test: Cell growth inhibition assay (CellTiter-Glo), K-562; conditions: for GI50: Homo sapiens, K562, read-out: K-562 GI50; for K-562 TGI: K-562 cells, total growth inhibition, CellTiter-Glo;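 on all read-outs here: cellular ATP measured by luminescence after 4 days of exposure, 3-fold dilution series from 10 µM, DMSO vehicle-treated cells define 100%, cell-free medium wells −100%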
BRD2 (His-Brd2(60-472)) = BRD2 (His-Brd2(60-472)) (Homo sapiens (Human), UniProt P25440); test: TR-FRET in-vitro binding assay for BRD2; conditions: single determination or n ≧ 2 independent determinations, read-out: Biochemical IC50 BRD2
Sequence of BRD2 (His-Brd2(60-472)) (P25440 60-472): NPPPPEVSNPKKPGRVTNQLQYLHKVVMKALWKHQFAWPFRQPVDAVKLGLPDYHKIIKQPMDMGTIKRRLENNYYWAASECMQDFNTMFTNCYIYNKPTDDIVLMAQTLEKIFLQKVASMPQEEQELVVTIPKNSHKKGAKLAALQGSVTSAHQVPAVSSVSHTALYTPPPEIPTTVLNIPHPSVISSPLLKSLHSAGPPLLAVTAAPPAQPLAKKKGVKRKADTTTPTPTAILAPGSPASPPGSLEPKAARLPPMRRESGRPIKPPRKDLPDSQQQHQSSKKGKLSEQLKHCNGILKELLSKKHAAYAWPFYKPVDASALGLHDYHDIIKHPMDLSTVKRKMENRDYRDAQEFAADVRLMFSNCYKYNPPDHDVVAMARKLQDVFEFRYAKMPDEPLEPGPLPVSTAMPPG
In short: as §1

| IC50 (BRD4 (His-Brd4(44-477))) | IC50 [1] | GI50 (THP-1 cells) | IC50 (BRD3 (His-Brd3(20-477))) | GI50 (MV-4-11 cells) | GI50 (K-562 cells) | IC50 (BRD2 (His-Brd2(60-472))) | Compound | THP-1 TGI (THP-1 cells) | MV-4-11 TGI (MV-4-11 cells) | K-562 TGI (K-562 cells) |
| --- | --- | --- | --- | --- | --- | --- | --- | --- | --- | --- |
| 19 nM | > 37000 nM | 11.5 nM | 33 nM | 1.94 nM | 55.9 nM | 25 nM | Cc1cc(N2C(=O)c3nc(C4CCN(C)CC4)n(C(C)C)c3C2c2ccc(Cl)cc2)nn2c(C)nnc12 (stereo not drawn) [Example 169, 6-(4-chlorophenyl)-5-(3,8-dimethyl-[1,2,4]triazolo[4,3-b]pyridazin-6-yl)-1-isopropyl-2-(1-methylpiperidin-4-yl)-5,6-dihydropyrrolo[3,4-d]imidazol-4(1H)-one] | 32.95 nM | 5.325 nM | >10000 nM |
| 17.5 nM | 6650 nM | 59.9 nM | 17 nM | 29.6 nM | 353 nM | 32 nM | CCOC(=O)N1CC=C(c2nc3c(n2C(C)C)C(c2ccc(Cl)cc2)N(c2cc(C)c4nnc(C)n4c2)C3=O)CC1 (stereo not drawn) [Example 70, ethyl 4-(6-(4-chlorophenyl)-5-(3,8-dimethyl-[1,2,4]triazolo[4,3-a]pyridin-6-yl)-1-isopropyl-4-oxo-1,4,5,6-tetrahydropyrrolo[3,4-d]imidazol-2-yl)-5,6-dihydropyridine-1(2H)-carboxylate] | 188 nM | 41.3 nM | >10000 nM |
| 24 nM | > 37000 nM | 27.1 nM | 30 nM | 23.9 nM | 105 nM | 65 nM | COc1ccc(-c2nc3c(n2C(C)C)C(c2ccc(Cl)cc2)N(c2cc(C)c4nnn(C)c4c2)C3=O)cn1 (stereo not drawn) [Example 83, 6-(4-chlorophenyl)-5-(1,4-dimethyl-1H-benzo[d][1,2,3]triazol-6-yl)-1-isopropyl-2-(6-methoxypyridin-3-yl)-5,6-dihydropyrrolo[3,4-d]imidazol-4(1H)-one] | 72.2 nM | 46.4 nM | >10000 nM |
| 24.5 nM | 2800 nM | 21.2 nM | 33 nM | 8.21 nM | 53.4 nM | 41 nM | Cc1cc(N2C(=O)c3nc(C4CCN(CC(C)(C)C)CC4)n(C(C)C)c3C2c2ccc(Cl)cc2)cn2c(C)nnc12 (stereo not drawn) [Example 104, 6-(4-chlorophenyl)-5-(3,8-dimethyl-[1,2,4]triazolo[4,3-a]pyridin-6-yl)-1-isopropyl-2-(1-neopentylpiperidin-4-yl)-5,6-dihydropyrrolo[3,4-d]imidazol-4(1H)-one] | 53.95 nM | 18.7 nM | >10000 nM |
| < 11 nM | 3800 nM | 57 nM | < 11 nM | 20.8 nM | 250 nM | 19 nM | Cc1cc(N2C(=O)c3nc(C4CCOCC4)n(C(C)C)c3C2c2ccc(Cl)cc2)cn2c(C)nnc12 (stereo not drawn) [Example 86, 6-(4-chlorophenyl)-5-(3,8-dimethyl-[1,2,4]triazolo[4,3-a]pyridin-6-yl)-1-isopropyl-2-(tetrahydro-2H-pyran-4-yl)-5,6-dihydropyrrolo[3,4-d]imidazol-4(1H)-one] | 155 nM | 43 nM | >10000 nM |
| 19.5 nM | 6400 nM | 212 nM | 25 nM | 22.4 nM | 439 nM | 40 nM | Cc1cc(N2C(=O)c3nc(C4=CC(C)(C)NC(C)(C)C4)n(C(C)C)c3C2c2ccc(Cl)cc2)cn2c(C)nnc12 (stereo not drawn) [Example 51, 6-(4-Chlorophenyl)-5-(3,8-dimethyl-[1,2,4]triazolo[4,3-a]pyridin-6-yl)-1-isopropyl-2-(2,2,6,6-tetramethyl-1,2,3,6-tetrahydropyridin-4-yl)-5,6-dihydropyrrolo[3,4-d]imidazol-4(1H)-one] | 612 nM | 47.9 nM | >10000 nM |
| 43 nM | 10200 nM | 84.3 nM | 58 nM | 35.1 nM | 156 nM | 120 nM | COc1cc(N2C(=O)c3nc(C4CCOCC4)n(C(C)C)c3C2c2ccc(Cl)cc2)cc2c1nnn2C (racemic) [Example 64] | 155 nM | 54.6 nM | >10000 nM |
| 61 nM | 9750 nM | 47.4 nM | 74 nM | 20.7 nM | 132 nM | 180 nM | COc1cc(N2C(=O)c3nc(C4CCOCC4)n(C(C)C)c3[C@H]2c2ccc(Cl)cc2)cc2c1nnn2C [Example 108] | 113 nM | 42.95 nM | >10000 nM |
| 72 nM | 21900 nM | 192 nM | 96.5 nM | 88.2 nM | 458 nM | 240 nM | COc1cc(N2C(=O)c3nc(C)n(C(C)C)c3C2c2ccc(Cl)cc2)cc2c1nnn2C (stereo not drawn) [Example 63] | 369 nM | 141 nM | >10000 nM |
| 35 nM | 2200 nM | 989 nM | 42 nM | 191 nM | 2040 nM | 56 nM | Cc1cc(N2C(=O)c3nc(C4=CCNCC4)n(C(C)C)c3C2c2ccc(Cl)cc2)cn2c(C)nnc12 (stereo not drawn) [Example 49, 6-(4-Chlorophenyl)-5-(3,8-dimethyl-[1,2,4]triazolo[4,3-a]pyridin-6-yl)-1-isopropyl-2-(1,2,3,6-tetrahydropyridin-4-yl)-5,6-dihydropyrrolo[3,4-d]imidazol-4(1H)-one] | 1470 nM | 320 nM | >10000 nM |
| 23.5 nM | 15600 nM | 148 nM | 35.5 nM | 38.4 nM | 596 nM | 58 nM | COc1cc(N2C(=O)c3nc(C4CCN(C)CC4)n(C(C)C)c3C2c2ccc(Cl)cc2)cc2c1nnn2C (stereo not drawn) [Example 97] | 432 nM | 90.2 nM | >10000 nM |
| 30 nM | 5000 nM | 258 nM | 44.5 nM | 21.3 nM | 1380 nM | 77 nM | CCN1CC=C(c2nc3c(n2C(C)C)C(c2ccc(Cl)cc2)N(c2cc(C)c4nnc(C)n4c2)C3=O)CC1 (stereo not drawn) [Example 68, 6-(4-chlorophenyl)-5-(3,8-dimethyl-[1,2,4]triazolo[4,3-a]pyridin-6-yl)-2-(1-ethyl-1,2,3,6-tetrahydropyridin-4-yl)-1-isopropyl-5,6-dihydropyrrolo[3,4-d]imidazol-4(1H)-one] | 458 nM | 37.1 nM | >10000 nM |
| 34.5 nM | 17500 nM | 122 nM | 45 nM | 27.4 nM | 353 nM | 95 nM | Cc1cc(N2C(=O)c3nc(C4=CCCN(C)C4)n(C(C)C)c3C2c2ccc(Cl)cc2)cn2c(CF)nnc12 (stereo not drawn) [Example 91] | 334 nM | 63.7 nM | >10000 nM |
| 21 nM | > 37000 nM | 289 nM | 35 nM | 226 nM | 946 nM | 43 nM | COc1ccc(-c2nc3c(n2C(C)C)C(c2ccc(Cl)cc2)N(c2cc(C)c4onc(C)c4c2)C3=O)cn1 (stereo not drawn) [Example 35, 6-(4-chlorophenyl)-5-(3,7-dimethylbenzo[d]isoxazol-5-yl)-1-isopropyl-2-(6-methoxypyridin-3-yl)-5,6-dihydropyrrolo[3,4-d]imidazol-4(1H)-one] | 462 nM | 384 nM | >10000 nM |

| Compound | IC50 (BRD4 (His-Brd4(44-477))) | IC50 [1] | GI50 (THP-1 cells) | IC50 (BRD3 (His-Brd3(20-477))) | GI50 (MV-4-11 cells) | GI50 (K-562 cells) | IC50 (BRD2 (His-Brd2(60-472))) | THP-1 TGI (THP-1 cells) | MV-4-11 TGI (MV-4-11 cells) | K-562 TGI (K-562 cells) |
| --- | --- | --- | --- | --- | --- | --- | --- | --- | --- | --- |
| Cc1cc(N2C(=O)c3nc(C4=CCN(C)CC4)[nH]c3C2c2ccc(Cl)cc2)cn(C)c1=O (stereo not drawn) [Example 135, 6-(4-chlorophenyl)-5-(1,5-dimethyl-6-oxo-1,6-dihydropyridin-3-yl)-2-(1-methyl-1,2,3,6-tetrahydropyridin-4-yl)-5,6-dihydropyrrolo[3,4-d]imidazol-4(1H)-one] | 31 nM | 3850 nM | 265 nM | 37 nM | 64.9 nM | 806 nM | 53 nM | 964 nM | 111.5 nM | >10000 nM |
